Four molecules from the NIST ThermoML archive (doi:10.1016/j.fluid.2017.09.010) can be followed below.

Molecules are shown by their SMILES. Numbers after ± are expanded uncertainties.

For this series the following is noted: Liquid, Ebulliometric method (Recirculating still).

For `CC(=O)OC(C)C` [1-methylethyl ethanoate], the “vapor or sublimation pressure” value (361.8 K) came to 101 ± 1 kPa.
For `CC(C)O` [propan-2-ol], the “vapor or sublimation pressure” value (355.4 K) was determined as 101 ± 1 kPa.
Consider `CCCOC(C)=O` [propyl ethanoate], for which the “vapor or sublimation pressure” value (374.2 K) worked out at 101 ± 1 kPa.
Turning to `O` [water], the “vapor or sublimation pressure” value (373 K) turned out to be 101 ± 5 kPa.
